The values that follow come from the supplement of paper PMC10307832.

What all share (assay): relative viability (nuclei count vs DMSO), 5 days (fraction); higher = more cells survive
Compound in experiment [1]: CC(=O)c1c(C)c2cnc(Nc3ccc(N4CCNCC4)cn3)nc2n(C2CCCC2)c1=O [Palbociclib] + CC(=O)Nc1cccc(-n2c(=O)n(C3CC3)c(=O)c3c(Nc4ccc(I)cc4F)n(C)c(=O)c(C)c32)c1 [Trametinib] (partner 0.02 µM)
An outline of the steps:
(§1)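 Dosing by pin tool came one day after lung cancer cell lines were seeded in 1536-well plates, using either one drug or a fixed anchor-drug dose plus five library-drug doses (not always all listed) in √10 steps. After 5 days, nuclei were counted on 4× images. Relative viability is treated-well nuclei count divided by vehicle-well nuclei count, and values are medians of duplicate plates.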

Compound in experiment [2]: CC(=O)c1c(C)c2cnc(Nc3ccc(N4CCNCC4)cn3)nc2n(C2CCCC2)c1=O [Palbociclib] + COc1cc2c(Oc3ccc(NC(=O)C4(C(=O)Nc5ccc(F)cc5)CC4)cc3F)ccnc2cc1OCCCN1CCOCC1 [Foretinib] (partner 0.25 µM)
An outline of the steps:
as §1

Compound in experiment [3]: CC(=O)c1c(C)c2cnc(Nc3ccc(N4CCNCC4)cn3)nc2n(C2CCCC2)c1=O [Palbociclib] + CC1(C)CCC(c2ccc(Cl)cc2)=C(CN2CCN(c3ccc(C(=O)NS(=O)(=O)c4ccc(N[C@H](CCN5CCOCC5)CSc5ccccc5)c(S(=O)(=O)C(F)(F)F)c4)cc3)CC2)C1 [Navitoclax] (partner 0.5 µM)
An outline of the steps:
as §1

Compound in experiment [4]: CC(=O)c1c(C)c2cnc(Nc3ccc(N4CCNCC4)cn3)nc2n(C2CCCC2)c1=O [Palbociclib] + Cc1cc(Nc2cc(N3CCN(C)CC3)nc(Sc3ccc(NC(=O)C4CC4)cc3)n2)n[nH]1 [Tozasertib] (partner 0.1 µM)
An outline of the steps:
as §1

Turning to NCI-H1355, the relative viability was determined as 0.433 in experiment [1] (first compound 0.01 µM); 0.448 in experiment [1] (first compound 0.03162 µM); 0.422 in experiment [1] (first compound 0.1 µM); 0.391 in experiment [1] (first compound 0.3162 µM); 0.363 in experiment [1] (first compound 1 µM); 1.03 in experiment [2] (first compound 0.01 µM). The relative viability in experiment [2] (first compound 0.03162 µM) came to 0.894; in experiment [2] (first compound 0.1 µM), 0.902; in experiment [2] (first compound 0.3162 µM) it was 0.85; in experiment [2] (first compound 1 µM), 0.715; in experiment [3] (first compound 0.01 µM), 0.943; in experiment [3] (first compound 0.1 µM), 0.772. For the same cell line, the relative viability in experiment [3] (first compound 0.3162 µM) came out at 0.755; in experiment [3] (first compound 1 µM), 0.597; in experiment [4] (first compound 0.01 µM), 0.613; in experiment [4] (first compound 0.03162 µM), 0.521; in experiment [4] (first compound 0.1 µM), 0.583; in experiment [4] (first compound 0.3162 µM), 0.556. Also, in experiment [4] (first compound 1 µM), the relative viability came to 0.454.
NCI-H1395: the relative viability in experiment [1] (first compound 0.01 µM) is 1.08; in experiment [1] (first compound 0.03162 µM), 0.884; in experiment [1] (first compound 0.1 µM), 0.816; in experiment [1] (first compound 0.3162 µM) it was 0.854; in experiment [1] (first compound 1 µM) it was 0.731; in experiment [2] (first compound 0.01 µM), 0.867. In addition, the relative viability in experiment [2] (first compound 0.03162 µM) was 0.876; in experiment [2] (first compound 0.1 µM), 0.846; in experiment [2] (first compound 0.3162 µM), 0.828; in experiment [2] (first compound 1 µM), 0.713; in experiment [3] (first compound 0.01 µM), 1.22; in experiment [3] (first compound 0.03162 µM), 1.17. The relative viability stood at 0.924 in experiment [3] (first compound 0.1 µM); 0.943 in experiment [3] (first compound 0.3162 µM); 0.656 in experiment [3] (first compound 1 µM); 0.791 in experiment [4] (first compound 0.01 µM); 0.709 in experiment [4] (first compound 0.03162 µM); 0.627 in experiment [4] (first compound 0.1 µM). The results for the relative viability in experiment [4] (first compound 0.3162 µM) and in experiment [4] (first compound 1 µM) were 0.676 and 0.635, respectively.
In the case of NCI-H1437, the relative viability in experiment [1] (first compound 0.01 µM) turned out to be 0.553; in experiment [1] (first compound 0.03162 µM), 0.522; in experiment [1] (first compound 0.1 µM) it was 0.456; in experiment [1] (first compound 0.3162 µM), 0.332; in experiment [1] (first compound 1 µM), 0.293; in experiment [2] (first compound 0.01 µM) it was 1.27. The relative viability in experiment [2] (first compound 0.03162 µM) was 1.16; in experiment [2] (first compound 0.1 µM), 0.992; in experiment [2] (first compound 0.3162 µM), 0.991; in experiment [2] (first compound 1 µM) it was 0.783; in experiment [3] (first compound 0.01 µM) it was 1.1; in experiment [3] (first compound 0.03162 µM) it was 1.04. The relative viability in experiment [3] (first compound 0.1 µM) stood at 0.933; in experiment [3] (first compound 0.3162 µM), 0.923; in experiment [3] (first compound 1 µM), 0.563; in experiment [4] (first compound 0.01 µM), 0.368; in experiment [4] (first compound 0.03162 µM), 0.351; in experiment [4] (first compound 0.1 µM), 0.287. The values for the relative viability in experiment [4] (first compound 0.3162 µM) and in experiment [4] (first compound 1 µM) were 0.376 and 0.307, respectively.
In the case of NCI-H1650, the relative viability is 0.623 in experiment [1] (first compound 0.01 µM); 0.575 in experiment [1] (first compound 0.03162 µM); 0.39 in experiment [1] (first compound 0.1 µM); 0.58 in experiment [1] (first compound 0.3162 µM); 0.411 in experiment [1] (first compound 1 µM); 1.3 in experiment [2] (first compound 0.01 µM). For the same cell line, the relative viability in experiment [2] (first compound 0.03162 µM) came out at 0.808; in experiment [2] (first compound 0.1 µM) it was 0.954; in experiment [2] (first compound 0.3162 µM), 0.934; in experiment [2] (first compound 1 µM) it was 0.65; in experiment [3] (first compound 0.01 µM), 1.41; in experiment [3] (first compound 0.03162 µM), 1.07. Moreover, the relative viability in experiment [3] (first compound 0.1 µM) amounted to 0.948; in experiment [3] (first compound 0.3162 µM) it was 1.03; in experiment [3] (first compound 1 µM), 0.673; in experiment [4] (first compound 0.01 µM) it was 0.48; in experiment [4] (first compound 0.03162 µM) it was 0.317; in experiment [4] (first compound 0.1 µM) it was 0.44. Further, the relative viability turned out to be 0.337 in experiment [4] (first compound 0.3162 µM) and 0.338 in experiment [4] (first compound 1 µM).
In the case of NCI-H1651, the relative viability is 0.841 in experiment [1] (first compound 0.01 µM); 0.798 in experiment [1] (first compound 0.03162 µM); 0.743 in experiment [1] (first compound 0.1 µM); 0.803 in experiment [1] (first compound 0.3162 µM); 0.714 in experiment [1] (first compound 1 µM); 0.882 in experiment [2] (first compound 0.01 µM). In addition, the relative viability in experiment [2] (first compound 0.03162 µM) is 0.819; in experiment [2] (first compound 0.1 µM), 0.779; in experiment [2] (first compound 0.3162 µM), 0.747; in experiment [2] (first compound 1 µM), 0.613; in experiment [3] (first compound 0.01 µM), 1.13; in experiment [3] (first compound 0.03162 µM), 0.986. The relative viability turned out to be 0.907 in experiment [3] (first compound 0.1 µM); 0.992 in experiment [3] (first compound 0.3162 µM); 0.736 in experiment [3] (first compound 1 µM); 0.749 in experiment [4] (first compound 0.01 µM); 0.603 in experiment [4] (first compound 0.03162 µM); 0.665 in experiment [4] (first compound 0.1 µM). Moreover, the relative viability in experiment [4] (first compound 0.3162 µM) is 0.617; in experiment [4] (first compound 1 µM), 0.685.
For NCI-H1666, the relative viability in experiment [1] (first compound 0.01 µM) was 0.862; in experiment [1] (first compound 0.03162 µM) it was 0.704; in experiment [1] (first compound 0.1 µM), 0.784; in experiment [1] (first compound 0.3162 µM), 0.727; in experiment [1] (first compound 1 µM) it was 0.728; in experiment [2] (first compound 0.01 µM) it was 0.998. Also, the relative viability turned out to be 0.941 in experiment [2] (first compound 0.03162 µM); 0.875 in experiment [2] (first compound 0.1 µM); 0.7 in experiment [2] (first compound 0.3162 µM); 0.553 in experiment [2] (first compound 1 µM); 0.929 in experiment [3] (first compound 0.01 µM); 0.782 in experiment [3] (first compound 0.03162 µM). Also, the relative viability in experiment [3] (first compound 0.1 µM) came out at 0.792; in experiment [3] (first compound 0.3162 µM), 0.544; in experiment [3] (first compound 1 µM), 0.448; in experiment [4] (first compound 0.01 µM), 0.642; in experiment [4] (first compound 0.03162 µM), 0.585; in experiment [4] (first compound 0.1 µM), 0.539. The values for the relative viability in experiment [4] (first compound 0.3162 µM) and in experiment [4] (first compound 1 µM) were 0.47 and 0.458, respectively.
Turning to NCI-H1734, the relative viability in experiment [1] (first compound 0.01 µM) was 0.617; in experiment [1] (first compound 0.03162 µM), 0.6; in experiment [1] (first compound 0.1 µM) it was 0.581; in experiment [1] (first compound 0.3162 µM), 0.56; in experiment [1] (first compound 1 µM) it was 0.481; in experiment [2] (first compound 0.01 µM), 0.831. In addition, the relative viability in experiment [2] (first compound 0.03162 µM) amounted to 0.683; in experiment [2] (first compound 0.1 µM), 0.608; in experiment [2] (first compound 0.3162 µM), 0.686; in experiment [2] (first compound 1 µM) it was 0.503; in experiment [3] (first compound 0.01 µM) it was 0.928; in experiment [3] (first compound 0.03162 µM), 0.779. In addition, the relative viability stood at 0.708 in experiment [3] (first compound 0.1 µM); 0.593 in experiment [3] (first compound 0.3162 µM); 0.487 in experiment [3] (first compound 1 µM); 0.267 in experiment [4] (first compound 0.01 µM); 0.253 in experiment [4] (first compound 0.03162 µM); 0.29 in experiment [4] (first compound 0.1 µM). The results for the relative viability in experiment [4] (first compound 0.3162 µM) and in experiment [4] (first compound 1 µM) were 0.231 and 0.277, respectively.
